Measurements as given in ChEMBL document CHEMBL4610067, “Molecular Networking Reveals Serpentinine-Related Bisindole Alkaloids from Picralima nitida, a Previously Well-Investigated Species” (J Nat Prod, 2020).

How the values were obtained:
Plasmodium falciparum = test: Antimalarial activity against chloroquine-resistant Plasmodium falciparum FcB1/Columbia infected in human erythrocytes assessed as reduction in [3H]-hypoxanthine incorporation pretreated for 24 hrs followed by [3H]-hypoxanthine addition measured after 24 hrs by liquid scintillation counting method; assay type: functional, organism-based
MRC5 = test: Growth inhibition of human MRC5 cells after 72 hrs by resazurin dye based spectrophotometric method assay; assay type: cell-based; settings: MRC5, 72 h

SMILES | IC50 (Plasmodium falciparum) [µM] | IC50 (MRC5) [µM]
C/C=C1/CN2CCc3c([nH]c4ccccc34)[C@@H]2C[C@@H]1[C@H](Cc1c[n+]2c(c3[nH]c4ccccc4c13)C[C@H](CCO)[C@@H](CC)C2)C(=O)OC | 8.7 | > 50
C/C=C1/C[n+]2cc(C[C@H](C(=O)OC)[C@H]3C[C@H]4c5[nH]c6ccccc6c5CCN4C/C3=C/C)c3c([nH]c4ccccc43)c2C[C@@H]1CCO | 9.5 | > 50
C/C=C1/CN2CCc3c([nH]c4ccccc34)[C@@H]2C[C@@H]1[C@H](Cc1c[n+]2c(c3[nH]c4ccccc4c13)C[C@@H]1C(C(=O)OC)=CO[C@@H](C)[C@@H]1C2)C(=O)OC | 2.6 | > 50
C/C=C1/C[n+]2ccc3c([nH]c4ccccc43)c2C[C@@H]1CCO | 19.5 | > 50
C/C=C1/CN2CCc3c([nH]c4ccccc34)[C@@H]2C[C@@H]1[C@H](Cc1c[n+]2c(c3[nH]c4ccccc4c13)C[C@@H]1C(C(=O)OC)=CO[C@@H](C)[C@@H]1C2)C(=O)O | 5.2 | > 50
COC(=O)CCc1c[n+]2c(c3[nH]c4ccccc4c13)C[C@@H]1C(C(=O)OC)=CO[C@@H](C)[C@@H]1C2 | 3 | 
C/C=C1/CN2CCc3c([nH]c4ccc(O)cc34)[C@@H]2C[C@@H]1CCO | 99 | > 50
